Laboratory results: patent publication US8148391B2 (Cephalon, Inc., priority 2006, dated 2012)
pIC50: −log10 of the molar value. Where a name gives a salt, the structure may show the parent alone. Read-outs that look alike come from different tables or passages of the source. Values belong to the compound of their own block, whether it stands above or below them.

How the values were obtained:
[1] = target: T1, c-Met (cytoplasmic domain) (Homo sapiens, UniProt P08581); experiment: c-Met Kinase Assay (same methods as for ALK, with modifications); assay type: biochemical
T1 construct: 10 ng/mL c-Met (cytoplasmic domain, Invitrogen Corporation #PV3143); purchased Invitrogen Corporation PV3143
Outline: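 IC50 values were fitted by variable-slope sigmoidal regression of percent inhibition against log compound concentration. Phosphorylation was read with Eu-N1 PT66 antibody after a 15 min, 37 °C reaction. The reaction was initiated with 10 ng/mL c-Met cytoplasmic domain on wells coated with 10 μg/mL PLC-γ in TBS.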

[2] = target: T2, baculovirus-expressed ALK (Homo sapiens, UniProt Q9UM73); experiment: ALK Kinase Assay (ELISA-type, time-resolved fluorescence); assay type: biochemical
T2 construct: host or cells: baculovirus expression system
Outline: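 Wells were coated with phospholipase C-γ at 10 μg/mL in Tris-buffered saline. Adding 30 ng/ml enzyme started the reaction, which ran at 37° C for 15 minutes before Eu-N1 PT66 antibody detection. Percent inhibition versus log10 concentration gave IC50 by variable-slope fit.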

[3] = 1 μM ATP (Km level), 10 ng/mL c-Met, read-out: cMet Activity (c-Met kinase inhibition, IC50 class)
[4] = 1 μM ATP (Km level), 30 ng/ml ALK, 37° C., 15 minutes, read-out: ALK Activity (ALK kinase inhibition, IC50 class)
[5] = c-Met kinase inhibition, 1 μM ATP (Km level), read-out: cMet Activity
[6] = ALK kinase inhibition, 1 μM ATP (Km level), read-out: ALK Activity
[7] = c-Met kinase inhibition, 1 μM ATP, read-out: cMet Activity
[8] = ALK kinase inhibition, 1 μM ATP, read-out: ALK Activity
[9] = 1 μM ATP (Km level), read-out: cMet Activity (c-Met Kinase Inhibition, IC50)
[10] = 1 μM ATP (Km level), read-out: ALK Activity (ALK Kinase Inhibition, IC50)

T2 sequence (Q9UM73 19-1620): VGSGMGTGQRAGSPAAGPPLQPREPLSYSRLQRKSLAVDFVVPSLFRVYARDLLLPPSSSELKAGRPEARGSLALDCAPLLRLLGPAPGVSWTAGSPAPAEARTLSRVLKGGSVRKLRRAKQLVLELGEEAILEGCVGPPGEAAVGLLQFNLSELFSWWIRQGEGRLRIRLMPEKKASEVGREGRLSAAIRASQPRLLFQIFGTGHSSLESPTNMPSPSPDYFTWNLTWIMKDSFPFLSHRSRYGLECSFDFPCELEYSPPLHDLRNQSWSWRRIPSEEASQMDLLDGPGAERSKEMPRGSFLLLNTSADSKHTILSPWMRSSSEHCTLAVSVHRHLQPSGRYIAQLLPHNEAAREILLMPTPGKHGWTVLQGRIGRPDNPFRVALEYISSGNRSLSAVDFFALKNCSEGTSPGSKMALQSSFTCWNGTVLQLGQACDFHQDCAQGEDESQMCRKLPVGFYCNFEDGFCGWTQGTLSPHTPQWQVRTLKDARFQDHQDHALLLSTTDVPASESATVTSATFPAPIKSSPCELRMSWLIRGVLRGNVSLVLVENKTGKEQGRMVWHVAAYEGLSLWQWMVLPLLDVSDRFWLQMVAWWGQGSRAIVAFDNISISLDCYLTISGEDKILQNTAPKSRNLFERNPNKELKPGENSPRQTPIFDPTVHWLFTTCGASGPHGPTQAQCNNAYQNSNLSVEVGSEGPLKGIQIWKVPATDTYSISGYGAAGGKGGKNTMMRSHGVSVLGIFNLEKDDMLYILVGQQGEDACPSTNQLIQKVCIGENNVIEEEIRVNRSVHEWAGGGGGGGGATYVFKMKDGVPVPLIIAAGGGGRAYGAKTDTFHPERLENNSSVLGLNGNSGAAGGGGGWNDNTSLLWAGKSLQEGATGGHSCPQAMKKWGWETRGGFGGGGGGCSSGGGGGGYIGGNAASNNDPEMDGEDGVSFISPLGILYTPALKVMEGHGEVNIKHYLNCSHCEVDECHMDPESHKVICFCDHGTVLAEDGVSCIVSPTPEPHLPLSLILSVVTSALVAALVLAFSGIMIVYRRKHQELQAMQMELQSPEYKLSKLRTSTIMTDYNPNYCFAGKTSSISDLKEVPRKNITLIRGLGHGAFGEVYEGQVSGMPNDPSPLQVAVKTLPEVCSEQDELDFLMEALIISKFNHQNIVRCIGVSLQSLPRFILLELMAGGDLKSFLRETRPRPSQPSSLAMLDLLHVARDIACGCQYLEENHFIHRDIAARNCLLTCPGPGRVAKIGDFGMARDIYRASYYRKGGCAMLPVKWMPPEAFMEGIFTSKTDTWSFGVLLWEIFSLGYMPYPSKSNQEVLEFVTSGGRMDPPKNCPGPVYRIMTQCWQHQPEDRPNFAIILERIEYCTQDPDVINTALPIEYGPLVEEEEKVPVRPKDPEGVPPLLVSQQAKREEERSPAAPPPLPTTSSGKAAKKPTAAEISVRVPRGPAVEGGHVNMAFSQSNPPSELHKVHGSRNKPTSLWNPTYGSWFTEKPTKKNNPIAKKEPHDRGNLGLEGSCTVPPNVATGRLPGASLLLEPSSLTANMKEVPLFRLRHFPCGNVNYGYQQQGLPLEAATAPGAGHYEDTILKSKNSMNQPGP
T1 sequence (P08581 956-1390 limits assumed): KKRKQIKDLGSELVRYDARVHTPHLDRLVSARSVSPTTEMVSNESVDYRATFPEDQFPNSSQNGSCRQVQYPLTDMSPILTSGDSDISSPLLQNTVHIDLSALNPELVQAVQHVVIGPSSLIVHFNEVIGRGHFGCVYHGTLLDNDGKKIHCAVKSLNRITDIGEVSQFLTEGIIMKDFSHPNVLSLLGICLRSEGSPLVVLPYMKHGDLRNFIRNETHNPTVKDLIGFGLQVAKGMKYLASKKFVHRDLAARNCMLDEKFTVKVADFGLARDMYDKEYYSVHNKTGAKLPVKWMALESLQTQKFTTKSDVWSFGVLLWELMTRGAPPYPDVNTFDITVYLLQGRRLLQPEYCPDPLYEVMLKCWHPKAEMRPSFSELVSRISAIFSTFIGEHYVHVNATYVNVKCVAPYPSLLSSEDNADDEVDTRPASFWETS

Compound: COc1cc2c(cc1Nc1ncc(Cl)c(N[C@@H]3[C@H](C(N)=O)[C@H]4C=C[C@@H]3C4)n1)CCN(CC(F)(F)F)CC2 (relative stereo) [Example 250, (2-exo, 3-exo)-3-{5-Chloro-2-[8-methoxy-3-(2,2,2-trifluoro-ethyl)-2,3,4,5-tetrahydro-1H-benzo[d]azepin-7-ylamino]-pyrimidin-4-ylamino}-bicyclo[2.2.1]hept-5-ene-2-carboxylic acid amide hydrochloride]
pIC50 [1, 5]: < 5.00 | pIC50 [2, 6]: > 7.00

Compound: 3-({2-[5-Chloro-2-(1-ethyl-5,5-dimethyl-2-oxo-2,3,4,5-tetrahydro-1H-1-benzazepin-8-ylamino)-pyrimidin-4-ylamino]-3-fluoro-phenyl}-methyl-amino)-propionitrile [Example 1265]
pIC50 [1, 3]: 5.00 to 6.00 | pIC50 [2, 4]: 6.00 to 7.00

Compound: CCCN1CCc2cc(Nc3ncc(Cl)c(N[C@H]4[C@@H](C(N)=O)[C@@H]5C=C[C@H]4C5)n3)c(OC)cc2CC1 [Example 774, (1S,2S,3R,4R)-3-[5-Chloro-2-(8-methoxy-3-propyl-2,3,4,5-tetrahydro-1H-benzo[d]azepin-7-ylamino)-pyrimidin-4-ylamino]-bicyclo[2.2.1]hept-5-ene-2-carboxylic acid amide]
pIC50 [1, 9]: < 5.00 | pIC50 [2, 10]: > 7.00

Compound: C#CCN1CCc2ccc(Nc3ncc(Cl)c(N[C@@H]4CCCC[C@H]4NS(C)(=O)=O)n3)cc2CC1 [Example 325, N-{(1R,2R)-2-[5-Chloro-2-(3-prop-2-ynyl-2,3,4,5-tetrahydro-1H-benzo[d]azepin-7-ylamino)-pyrimidin-4-ylamino]-cyclohexyl}-methanesulfonamide]
pIC50 [1, 5]: 6.00 to 7.00 | pIC50 [2, 6]: > 7.00

Compound: COCCN1CCc2ccc(Nc3ncc(Cl)c(NC4C5C=CC(C5)C4C(N)=O)n3)cc2CC1 (stereo not drawn) [Example 310, (2-exo,3-exo)-3-{5-Chloro-2-[3-(2-methoxy-ethyl)-2,3,4,5-tetrahydro-1H-benzo[d]azepin-7-ylamino]-pyrimidin-4-ylamino}-bicyclo[2.2.1]hept-5-ene-2-carboxylic acid amide]
pIC50 [1, 5]: 6.00 to 7.00 | pIC50 [2, 6]: > 7.00

Compound: COc1cc2c(cc1Nc1ncc(F)c(Nc3ccc(N4CCOCC4)cc3OC)n1)CCN(CC(N)=O)CC2 [Example 810, 2-{7-[5-Fluoro-4-(2-methoxy-4-morpholin-4-yl-phenylamino)-pyrimidin-2-ylamino]-8-methoxy-1,2,4,5-tetrahydro-benzo[d]azepin-3-yl}-acetamide]
pIC50 [1, 9]: < 5.00 | pIC50 [2, 10]: > 7.00

Compound: NC(=O)[C@@H]1[C@H]2CC[C@H](C2)[C@@H]1Nc1nc(Nc2ccc3c(c2)CCC(NCC(F)(F)F)CC3)ncc1Cl (stereo partly drawn) [Example 654, (1S,2R,3S,4R)-3-{5-Chloro-2-[7-(2,2,2-trifluoro-ethylamino)-6,7,8,9-tetrahydro-5H-benzocyclohepten-2-ylamino]-pyrimidin-4-ylamino}-bicyclo[2.2.1]heptane-2-carboxylic acid amide]
pIC50 [1, 9]: 6.00 to 7.00 | pIC50 [2, 10]: > 7.00

Compound: Cc1cccc(-c2ccccc2Nc2nc(Nc3ccc4c(c3)C(C)(C)CCC(=O)N4)ncc2Cl)n1 [Example 1008, 7-{5-Chloro-4-[2-(6-methyl-pyridin-2-yl)-phenylamino]-pyrimidin-2-ylamino}-5,5-dimethyl-1,3,4,5-tetrahydro-benzo[b]azepin-2-one]
pIC50 [1, 9]: 5.00 to 6.00 | pIC50 [2, 10]: > 7.00

Compound: Cn1ccnc1-c1ccccc1Nc1nc(Nc2ccc3c(c2)CCC(N2CCOCC2)CC3)ncc1Cl (centres unmarked) [Example 218, 5-Chloro-N*4*-[2-(1-methyl-1H-imidazol-2-yl)-phenyl]-N*2*-(7-morpholin-4-yl-6,7,8,9-tetrahydro-5H-benzocyclohepten-2-yl)-pyrimidine-2,4-diamine]
pIC50 [1, 5]: 6.00 to 7.00 | pIC50 [2, 6]: > 7.00

Compound: CNS(=O)(=O)c1ccccc1Nc1nc(Nc2cccc3c2N(C)CCN(C)C3=O)ncc1Cl [Example 543, 2-[5-Chloro-2-(1,4-dimethyl-5-oxo-2,3,4,5-tetrahydro-1H-benzo[e][1,4]diazepin-9-ylamino)-pyrimidin-4-ylamino]-N-methyl-benzenesulfonamide]
pIC50 [1, 9]: < 5.00 | pIC50 [2, 10]: 5.00 to 6.00

Compound: CNC(=O)c1ccccc1Nc1nc(Nc2ccc3c(c2)CCN(C(C)C)CC3)ncc1Cl [Example 47, 2-[5-Chloro-2-(3-isopropyl-2,3,4,5-tetrahydro-1H-benzo[d]azepin-7-ylamino)-pyrimidin-4-ylamino]-N-methyl-benzamide]
pIC50 [1, 5]: > 7.00 | pIC50 [2, 6]: > 7.00

Results, then the compound that gave them:

pIC50 [1, 3]: 6.00 to 7.00 | pIC50 [2, 4]: > 7.00
Compound: COc1cc2c(cc1Nc1ncc(Cl)c(Nc3ccccc3S(=O)(=O)N3CCC(O)C3)n1)CCNC(=O)C2 (centres unmarked) [Example 1193, 7-{5-Chloro-4-[2-(3-hydroxy-pyrrolidine-1-sulfonyl)-phenylamino]-pyrimidin-2-ylamino}-8-methoxy-1,3,4,5-tetrahydro-benzo[d]azepin-2-one]

pIC50 [1, 7]: 5.00 to 6.00 | pIC50 [2, 8]: 6.00 to 7.00
Compound: Cc1cccc(C(N)=O)c1Nc1nc(Nc2ccc3c(c2)C(C)(C)CCC(=O)N3)ncc1Cl [Example 1476, 2-[5-Chloro-2-(5,5-dimethyl-2-oxo-2,3,4,5-tetrahydro-1H-benzo[b]azepin-7-ylamino)-pyrimidin-4-ylamino]-3-methyl-benzamide]

pIC50 [1, 3]: 5.00 to 6.00 | pIC50 [2, 4]: 6.00 to 7.00
Compound: CC(C)S(=O)(=O)c1cccc(F)c1Nc1nc(Nc2ccc3c(c2)NC(=O)CCC3(C)C)ncc1Cl [Example 1251, 8-{5-Chloro-4-[2-fluoro-6-(propane-2-sulfonyl)-phenylamino]-2-ylamino}-5,5-dimethyl-1,3,4,5-tetrahydro-1-benzazepin-2-one]

pIC50 [1, 3]: 5.00 to 6.00 | pIC50 [2, 4]: > 7.00
Compound: COc1cc2c(cc1Nc1ncc(Cl)c(Nc3ccccc3S(=O)(=O)C(C)C)n1)CCN(CC(=O)N1CCCC1)CC2 [Example 1158, 2-(7-{5-Chloro-4-[2-(propane-2-sulfonyl)-phenylamino]-pyrimidin-2-ylamino}-8-methoxy-1,2,4,5-tetrahydro-benzo[d]azepin-3-yl)-1-pyrrolidin-1-yl-ethanone]

pIC50 [1, 7]: > 7.00 | pIC50 [2, 8]: > 7.00
Compound: CN1C(=O)OCCc2cc(Nc3ncc(Cl)c(Nc4ccccc4OCC#N)n3)ccc21 [Example 1748, {2-[5-chloro-2-(5-methyl-6-oxo-5,6,8,9-tetrahydro-7-oxa-5-aza-benzocyclohepten-2-ylamino)-pyrimidin-4-ylamino]-phenoxy}-acetonitrile]

pIC50 [1, 7]: > 7.00 | pIC50 [2, 8]: > 7.00
Compound: CNC(=O)c1cc(F)ccc1Nc1nc(Nc2ccc3c(c2)CCOC(=O)N3C)ncc1Cl [Example 1752, 2-[5-Chloro-2-(5-methyl-6-oxo-5,6,8,9-tetrahydro-7-oxa-5-aza-benzocyclohepten-2-ylamino)-pyrimidin-4-ylamino]-5-fluoro-N-methyl-benzamide]

pIC50 [1, 7]: 6.00 to 7.00 | pIC50 [2, 8]: > 7.00
Compound: COc1cc2c(cc1Nc1ncc(Cl)c(Nc3ccccc3S(=O)(=O)N3CC[C@H](O)C3)n1)CCN(C[C@H](C)O)CC2 [Example 1555, (S)-1-(2-{5-Chloro-2-[3-((S)-2-hydroxy-propyl)-8-methoxy-2,3,4,5-tetrahydro-1H-3-benzazepin-7-ylamino]-pyrimidin-4-ylamino}-benzenesulfonyl)-pyrrolidin-3-ol]

pIC50 [1, 3]: 5.00 to 6.00 | pIC50 [2, 4]: > 7.00
Compound: COc1cc2c(cc1Nc1ncc(Cl)c(Nc3ccccc3S(=O)(=O)C(C)C)n1)CCC(NCCO)CC2 (centres unmarked) [Example 1090, 2-(2-{5-Chloro-4-[2-(propane-2-sulfonyl)-phenylamino]-pyrimidin-2-ylamino}-3-methoxy-6,7,8,9-tetrahydro-5H-benzocyclohepten-7-ylamino)-ethanol]
